Assay results: patent US20020155192A1, “Yeast transport isoforms” (priority 2000, published 2002)
Read-outs that look alike come from different tables or passages of the source.

Columns and labels:
Odc1p = target: T1, Odc1p (Saccharomyces cerevisiae, UniProt Q03028); assay: Effect of inhibitors and external compounds on the [14C]oxoglutarate/oxoglutarate exchange by proteoliposomes reconstituted with Odc1p; type: biochemical; conditions: for Inhibition (%) of [14C]oxoglutarate/oxoglutarate exchange: 20 mM internal oxoglutarate, 0.4 mM [14C]oxoglutarate, 45 seconds, inhibitors 4 mM, except mercurials 10 μM, carboxyatractyloside 0.1 mM, N-ethylmaleimide and α-cyanocinnamate 2 mM; for inhibition of [14C]oxoglutarate/oxoglutarate exchange (in words): Table III
T1 construct: made in house; host or cells: S. cerevisiae odc1Δodc2Δ (YPH499 background) carrying pYES2-based pODC1; purified from mitochondria on Ni-NTA agarose
T1 sequence (Q03028 1-310): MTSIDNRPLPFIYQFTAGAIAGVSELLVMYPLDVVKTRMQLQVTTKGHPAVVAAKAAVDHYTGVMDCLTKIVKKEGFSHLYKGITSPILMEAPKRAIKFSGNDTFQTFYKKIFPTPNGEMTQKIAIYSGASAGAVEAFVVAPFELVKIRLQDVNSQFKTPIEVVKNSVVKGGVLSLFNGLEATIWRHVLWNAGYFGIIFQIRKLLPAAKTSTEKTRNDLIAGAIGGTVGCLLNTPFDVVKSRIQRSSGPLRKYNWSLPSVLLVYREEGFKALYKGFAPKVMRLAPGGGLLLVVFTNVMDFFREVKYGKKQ
Experimental: FIG. 5. Effect of dicarboxylates and 2-oxodicarboxylates with different carbon chain length on the rate of [^14C]oxoglutarate uptake into proteoliposomes reconstituted with recombinant Odc1p. Proteoliposomes were preloaded with 20 mM oxoglutarate and reconstituted with recombinant Odc1p. Transport was initiated by the addition of 0.4 mM [^14C]oxoglutarate and terminated after 45 seconds. Oxalate, malonate, succinate, glutarate, adipate, pimelate, suberate (▪) and the corresponding 2-oxoacids (●) were added simultaneously with [1^4C]oxoglutarate at 4.0 mM concentration.
(§1) Reconstitution of the ODC proteins into liposomes—Purified ODC proteins were reconstituted by cyclic removal of the detergent with a hydrophobic column (13). The composition of the initial mixture used for reconstitution was: 200 μl of purified isoform (0.3-0.4 μg of protein), 70 μl of 10% Triton X-114, 100 μl of 10% phospholipids in the form of sonicated liposomes, 20 mM oxoglutarate (except where otherwise indicated), 10 mM Pipes (pH 7.0), 0.7 mg of cardiolipin (Sigma) and water to a final volume of 700 μl. These components were mixed thoroughly, and the mixture was recycled 13 times through an Amberlite column (Supelco) (3.0 cm×0.5 cm) preequilibrated with a buffer containing 10 mM Pipes (pH 7.0) and with the substrate at the same concentration as in the starting mixture. All operations were performed at 4° C., except the passages through Amberlite, which were carried out at room temperature.
(§2) External substrate was removed from proteoliposomes on a Sephadex G-75 column preequilibrated with buffer F (50 mM NaCl and 10 mM PIPES, pH 7.0). Transport at 25° C. was started by adding [^14C]oxoglutarate (unless otherwise indicated) to the proteoliposomes, and terminated by addition of 30 mM pyridoxal 5′-phosphate and 10 mM bathophenanthroline (the “inhibitor-stop” method (13)). In controls, inhibitors were added with the labelled substrate. The external radioactivity was removed on Sephadex G-75 and the internal radioactivity was measured. […] The initial rate of transport was calculated in mmol/min per g protein from the time course of isotope equilibration (13). Various other transport activities were also assayed by the inhibitor-stop method. For efflux measurements, the internal substrate pool of the proteoliposomes was made radioactive by carrier-mediated exchange equilibration (13) with 0.1 mM [^14C]oxoglutarate added at high specific radioactivity. After 60 min, the residual external radioactivity was removed by passing the proteoliposomes again through a column of Sephadex G-75. Efflux was started by adding unlabelled external substrate or buffer F alone and terminated by adding the inhibitors indicated above.
(§3) In addition, the ability of non-radioactive potential substrates to inhibit the oxoglutarate/oxoglutarate exchange was examined.
Proteoliposomes were preloaded internally with 20 mM oxoglutarate and transport was initiated by the addition of 0.4 mM [^14C]oxoglutarate.

Odc2p = target: T2, Odc2p (Saccharomyces cerevisiae, UniProt Q99297); assay: Effect of inhibitors and external compounds on the [14C]oxoglutarate/oxoglutarate exchange by proteoliposomes reconstituted with Odc2p; type: biochemical; conditions: for Inhibition (%) of [14C]oxoglutarate/oxoglutarate exchange: 20 mM internal oxoglutarate, 0.4 mM [14C]oxoglutarate, 45 seconds, inhibitors 4 mM, except mercurials 10 μM, carboxyatractyloside 0.1 mM, N-ethylmaleimide and α-cyanocinnamate 2 mM; for inhibition of [14C]oxoglutarate/oxoglutarate exchange (in words): Table III
T2 construct: made in house; host or cells: S. cerevisiae odc1Δodc2Δ (YPH499 background) carrying pYES2-based pODC2; purified from mitochondria on Ni-NTA agarose
T2 sequence (Q99297 1-307): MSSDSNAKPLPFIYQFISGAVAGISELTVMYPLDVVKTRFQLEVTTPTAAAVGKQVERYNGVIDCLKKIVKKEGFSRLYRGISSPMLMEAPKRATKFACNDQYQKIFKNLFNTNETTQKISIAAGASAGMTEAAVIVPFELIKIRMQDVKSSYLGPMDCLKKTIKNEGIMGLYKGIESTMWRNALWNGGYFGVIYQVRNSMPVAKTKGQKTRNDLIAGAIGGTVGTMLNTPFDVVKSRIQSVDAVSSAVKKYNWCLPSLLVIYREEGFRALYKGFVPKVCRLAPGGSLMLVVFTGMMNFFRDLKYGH
Experimental: as §1, §2, §3
Proteoliposomes were preloaded internally with 20 mM oxoglutarate and transport was initiated by the addition of 0.4 mM [^14C]oxoglutarate. The incubation time was 45 seconds. Thiol reagents and α-cyanocinnamate were added 2 min before the labelled substrate; the other inhibitors and external substrates were added together with [^14C]oxoglutarate. The final concentration of the inhibitors was 4 mM, except for mercurials (10 μM), carboxyatractyloside (0.1 mM), N-ethylmaleimide and α-cyanocinnamate (2 mM).

[1] = Odc1p, added with 0.4 mM [14C]oxoglutarate, 4.0 mM in FIG. 5, partly data not shown

| effect of non-radioactive potential substrates on the rate of oxoglutarate uptake (in words) (Odc1p; [1]) | effect of non-radioactive potential substrates on the rate of oxoglutarate uptake (in words) (Odc2p; Odc2p, data not shown) | Compound | Inhibition (%) of [14C]oxoglutarate/oxoglutarate exchange (Odc1p; Odc1p) [%] | inhibition of [14C]oxoglutarate/oxoglutarate exchange (in words) (Odc1p; Odc1p) | Inhibition (%) of [14C]oxoglutarate/oxoglutarate exchange (Odc2p; Odc2p) [%] | inhibition of [14C]oxoglutarate/oxoglutarate exchange (in words) (Odc2p; Odc2p) | also measured |
| --- | --- | --- | --- | --- | --- | --- | --- |
| – | – | C=C1[C@@H]2CC[C@H]3[C@]4(C)C[C@H](O[C@@H]5O[C@H](CO)[C@@H](OS(=O)(=O)O)[C@H](OS(=O)(=O)O)[C@H]5OC(=O)CC(C)C)CC(C(=O)O)(C(=O)O)[C@H]4CC[C@]3(C2)[C@H]1O [Carboxyatractyloside] | 7 | little or no effect | 10 | little or no effect | – |
| no effect | no effect | N[C@@H](CO)C(=O)O [serine] | – | – | – | – | – |
| no effect | no effect | N[C@@H](Cc1c[nH]cn1)C(=O)O [histidine] | – | – | – | – | – |
| – | – | CC(=O)CCCC(=O)O [5-oxohexanoate] | – | – | – | – | effect of oxomonocarboxylates on the rate of uptake of 0.4 mM oxoglutarate (in words) (Odc1p; Odc1p, 8 mM, 20 times greater than the substrate, data not shown): did not influence; effect of oxomonocarboxylates on the rate of uptake of 0.4 mM oxoglutarate (in words) (Odc2p; Odc2p, 8 mM, 20 times greater than the substrate, data not shown): did not influence |
| no effect | no effect | NC(=O)C[C@H](N)C(=O)O [asparagine] | – | – | – | – | – |
| – | – | O=S(=O)(O)c1cc[c]([Hg][Cl])cc1 [p-Chloromercuriphenylsulfonate] | 98 | inhibited strongly | 100 | inhibited strongly | – |
| no effect | no effect | NCCCC[C@H](N)C(=O)O [lysine] | – | – | – | – | – |
| no affect | no affect | NC(C(=O)O)C(O)C(=O)O (racemic) [DL-Threo-hydroxyaspartate] | – | – | – | – | – |
| – | – | [Cl][Hg][Cl] [HgCl2, mercuric chloride] | 100 | inhibited strongly | 98 | inhibited strongly | – |
| no effect | no effect | C[C@H](N)C(=O)O [alanine] | – | – | – | – | – |
| completely ineffective | completely ineffective | O=C(O)C(O)C(=O)O [tartronate] | – | – | – | – | – |
| – | – | O=C(O)c1cccc(C(=O)O)c1C(=O)O [1,2,3-Benzenetricarboxylate] | 41 | rather mild inhibitory effect | 37 | rather mild inhibitory effect | – |
| – | – | CCCCC(C(=O)O)C(=O)O [Butylmalonate] | 118 | rather poorly | 25 | rather poorly | – |
| – | – | N=C(N)NCCC[C@H](N)C(=O)O [arginine] | – | – | – | – | effect of non-radioactive potential substrates on the rate of oxoglutarate uptake (in words) (Odc1p): no effect; effect of non-radioactive potential substrates on the rate of oxoglutarate uptake (in words) (Odc2p): no effect |
| no effect | no effect | CC(C)[C@H](N)C(=O)O [valine] | – | – | – | – | – |
| – | – | CCN1C(=O)C=CC1=O [N-Ethylmaleimide] | 65 | inhibited considerably | 43 | inhibited considerably | – |
| – | – | hydroxyglutarate | – | – | – | – | effect of non-radioactive potential substrates on the rate of oxoglutarate uptake (in words) (Odc1p): slightly less effective than glutarate; effect of non-radioactive potential substrates on the rate of oxoglutarate uptake (in words) (Odc2p): slightly less effective than glutarate |
| no effect | no effect | NCC(=O)O [glycine] | – | – | – | – | – |
| – | – | N#C/C(=C\c1ccccc1)C(=O)O [α-Cyanocinnamate] | 86 | inhibited strongly | 80 | inhibited strongly | – |
| no effect | no effect | C[C@@H](O)[C@H](N)C(=O)O [threonine] | – | – | – | – | – |
| – | – | O=C(O)CC(O)C(=O)O (stereo not shown) [malate] | – | – | – | – | increase of the extent of inhibition of oxoglutarate uptake with respect to the corresponding dicarboxylate (Odc1p; Odc1p, C4 hydroxydicarboxylate versus C4 dicarboxylate, not shown): about 10 fold; increase of the extent of inhibition of oxoglutarate uptake with respect to the corresponding dicarboxylate (Odc2p; Odc2p, C4 hydroxydicarboxylate versus C4 dicarboxylate, not shown): about 10 fold |
| – | – | COC(CNC(=O)c1ccccc1OCC(=O)O)[CH2][Hg][OH] (stereo not shown) [Mersalyl] | – | inhibited strongly | 100 | inhibited strongly | – |
| – | – | O=C(O)CC(C(=O)O)c1ccccc1 (stereo not shown) [Phenylsuccinate] | 23 | rather poorly | 22 | rather poorly | – |

| Compound | effect of non-radioactive potential substrates on the rate of oxoglutarate uptake (in words) (Odc1p; [1]) | effect of non-radioactive potential substrates on the rate of oxoglutarate uptake (in words) (Odc2p; Odc2p, data not shown) | Inhibition (%) of [14C]oxoglutarate/oxoglutarate exchange (Odc1p; Odc1p) [%] | inhibition of [14C]oxoglutarate/oxoglutarate exchange (in words) (Odc1p; Odc1p) | Inhibition (%) of [14C]oxoglutarate/oxoglutarate exchange (Odc2p; Odc2p) [%] | inhibition of [14C]oxoglutarate/oxoglutarate exchange (in words) (Odc2p; Odc2p) | also measured |
| --- | --- | --- | --- | --- | --- | --- | --- |
| O=C(O)[C@@H](O)[C@H](O)C(=O)O [D-tartrate] | more efficiently than succinate | more efficiently than succinate | – | – | – | – | – |
| O=C(O)[C@H](O)[C@@H](O)C(=O)O [L-tartrate] | more efficiently than succinate | more efficiently than succinate | – | – | – | – | – |
